Data on 24 compounds can be found in PubChem BioAssay (NCI).

Molecules are shown by their SMILES.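 Tested at 5 concentrations; 48 h exposure; 96-well plates; endpoints linearly interpolated, else capped at highest concentration. GI50 = concentration required for 50% inhibition of growth. TGI marks complete inhibition of growth.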 Bounds are passed on as bounds.

Some test systems named below: A498 renal; HCC-2998 colon; LOX IMVI melanoma; MALME-3M melanoma; NCI-H23 lung; NCI-H460 lung; RXF 393 renal; SF-295 CNS.
Assay in all cases: DTP human tumour cell line panel, 48 h

Usually TGI stands for the concentration at which net growth stops. With `COc1ccc(-c2cc(C(=O)Nc3cccc(C(F)(F)F)c3)[nH]c(=S)n2)cc1`, the total growth inhibition concentration (TGI) in the experiment with A498 renal, in the experiment with HCC-2998 colon, in the experiment with LOX IMVI melanoma, in the experiment with MALME-3M melanoma, with NCI-H23 lung and in the experiment on NCI-H460 lung was greater than 100 µM in each case. Also, the concentration for total growth inhibition (TGI) in the experiment with RXF 393 renal and in the experiment on SF-295 CNS was greater than 100 µM each time.
Turning to `Cc1c(/C=C2\CC/C(=C\c3[nH]c(C(=O)OC(C)(C)C)c(C)c3C)C2=O)[nH]c(C(=O)OC(C)(C)C)c1C`, the total growth inhibition concentration (TGI) in the experiment on A498 renal, in the experiment on HCC-2998 colon, in the experiment with LOX IMVI melanoma, in the experiment on MALME-3M melanoma, in the experiment on NCI-H23 lung and in the experiment with NCI-H460 lung was greater than 100 µM in each case. Further, the TGI in the experiment with RXF 393 renal and in the experiment with SF-295 CNS was greater than 100 µM each time.
As to `O=c1/c(=C/c2cccc3ccccc23)sc2nc3ccccc3n12`, the concentration for total growth inhibition (TGI) in the experiment with A498 renal, in the experiment with HCC-2998 colon, in the experiment on LOX IMVI melanoma, with MALME-3M melanoma, with NCI-H23 lung and with NCI-H460 lung was greater than 100 µM throughout. In addition, the total growth inhibition concentration (TGI) in the experiment with RXF 393 renal and in the experiment with SF-295 CNS was greater than 100 µM in each case.
In the case of `COc1cc(OC)cc(N2CCC(c3c(N)nc(N)nc3Cl)CC2)c1`, the TGI with HCC-2998 colon, with LOX IMVI melanoma, in the experiment with MALME-3M melanoma, with NCI-H23 lung, with NCI-H460 lung and in the experiment on RXF 393 renal was greater than 100 µM throughout. For the same compound, the TGI in the experiment with SF-295 CNS is greater than 100 µM.
For `COc1nc(OC)c2c(=O)oc(-c3ccccc3)cc2n1`, the TGI with HCC-2998 colon, in the experiment with MALME-3M melanoma, in the experiment with NCI-H23 lung, in the experiment on RXF 393 renal and in the experiment with SF-295 CNS was greater than 100 µM in each case.
In the case of `CS(=O)(=O)C1S(=O)(=O)OCCOS1(=O)=O`, the concentration for total growth inhibition (TGI) in the experiment with A498 renal, with HCC-2998 colon, in the experiment with LOX IMVI melanoma, in the experiment with MALME-3M melanoma, in the experiment on NCI-H23 lung and in the experiment with NCI-H460 lung was greater than 100 µM each time. Moreover, the total growth inhibition concentration (TGI) in the experiment with RXF 393 renal and in the experiment on SF-295 CNS was greater than 100 µM each time.
Consider `O=c1cc2n(c(=O)[nH]1)C1OC(C(O)C1O)[C@@H]2CCO` (stereo not given in full), for which the TGI with A498 renal, with LOX IMVI melanoma, with MALME-3M melanoma, in the experiment on NCI-H23 lung, in the experiment on NCI-H460 lung and in the experiment on RXF 393 renal was greater than 100 µM throughout. Moreover, the total growth inhibition concentration (TGI) with SF-295 CNS is greater than 100 µM.
As to `COC(=O)c1cnc2nc(N3CCOCC3)[nH]n2c1=O`, the TGI with A498 renal, with HCC-2998 colon, with LOX IMVI melanoma, in the experiment on MALME-3M melanoma, with NCI-H23 lung and in the experiment with NCI-H460 lung was greater than 100 µM each time. Also, the TGI in the experiment on RXF 393 renal and with SF-295 CNS was greater than 100 µM in each case.
On to `CCc1nc2c(O)ccc(O)c2nc1C`, for which the TGI in the experiment with A498 renal was 35.2 µM; in the experiment on HCC-2998 colon, greater than 54.9 µM; in the experiment with LOX IMVI melanoma it was 29.9 µM; with MALME-3M melanoma, 29.3 µM; in the experiment on NCI-H23 lung, 33.4 µM; with NCI-H460 lung, 36.1 µM. In addition, the total growth inhibition concentration (TGI) in the experiment with RXF 393 renal was found to be 25.5 µM; in the experiment with SF-295 CNS it was 34.2 µM.
`CCOC(C)OCC#CCCBr` (stereo not given): the TGI in the experiment with HCC-2998 colon, with LOX IMVI melanoma, with MALME-3M melanoma, in the experiment with NCI-H23 lung, in the experiment on NCI-H460 lung and with RXF 393 renal was greater than 100 µM in each case. Besides, the total growth inhibition concentration (TGI) in the experiment with SF-295 CNS is greater than 100 µM.
Turning to `CC(C)(C)c1nc2c(o1)C(=Nc1ccccc1)c1ccccc1C2=O`, the TGI was found to be 36.4 µM in the experiment on A498 renal; 42.6 µM in the experiment with HCC-2998 colon; 4.14 µM in the experiment on LOX IMVI melanoma; 3.01 µM in the experiment with MALME-3M melanoma; 5.29 µM in the experiment on NCI-H23 lung; 19.9 µM in the experiment with NCI-H460 lung. In addition, the total growth inhibition concentration (TGI) is 14.7 µM in the experiment with RXF 393 renal and 10.2 µM in the experiment on SF-295 CNS.
With `N#C/C(=C\c1ccc(CP(=O)(O)O)cc1)C(N)=O`, the TGI with A498 renal, in the experiment with HCC-2998 colon, with LOX IMVI melanoma, in the experiment with MALME-3M melanoma, in the experiment with NCI-H23 lung and with NCI-H460 lung was greater than 100 µM throughout. The compound further came in with a TGI with SF-295 CNS greater than 100 µM.
As a reminder, the GI50 is the concentration giving 50% growth inhibition. On to `CC(=O)[CH-]C(=O)c1ccccc1.CC(=O)[CH-]C(=O)c1ccccc1.[Nd+3].[OH-].[OH3+]`, for which the GI50 in the experiment on A498 renal, in the experiment with HCC-2998 colon, with LOX IMVI melanoma, in the experiment on MALME-3M melanoma, in the experiment on NCI-H23 lung and in the experiment with NCI-H460 lung was greater than 100 µM each time. Moreover, the GI50 in the experiment on RXF 393 renal and in the experiment with SF-295 CNS was greater than 100 µM in each case. For the same compound, the total growth inhibition concentration (TGI) with A498 renal, with HCC-2998 colon, in the experiment on LOX IMVI melanoma, in the experiment with MALME-3M melanoma, with NCI-H23 lung and with NCI-H460 lung was greater than 100 µM throughout. Besides, the TGI in the experiment with RXF 393 renal and in the experiment on SF-295 CNS was greater than 100 µM throughout.
With `OCC(O)CC[CH2][Sn]([c]1ccccc1)([c]1ccccc1)[c]1ccccc1` (stereo not given), the GI50 in the experiment with HCC-2998 colon was 18.2 µM; with LOX IMVI melanoma, 14.9 µM; in the experiment with NCI-H23 lung, 15.1 µM; in the experiment on NCI-H460 lung, 15.4 µM; in the experiment with RXF 393 renal, 4.32 µM; with SF-295 CNS, 11.3 µM. The concentration for total growth inhibition (TGI) with HCC-2998 colon is 34.5 µM; in the experiment on LOX IMVI melanoma, 30.7 µM; in the experiment on NCI-H23 lung it was 29.8 µM; in the experiment on NCI-H460 lung it was 31.6 µM; with RXF 393 renal, 19.7 µM; in the experiment on SF-295 CNS, 23.3 µM.
Consider `CN(C)CCNC(=O)c1ccc2ccc3cccnc3c2n1`, for which the TGI is greater than 57.4 µM with A498 renal; 25.4 µM in the experiment on HCC-2998 colon; 49.8 µM in the experiment with LOX IMVI melanoma; 28.7 µM in the experiment with MALME-3M melanoma; 42.2 µM in the experiment with NCI-H23 lung; 35.9 µM in the experiment on NCI-H460 lung. Further, the concentration for total growth inhibition (TGI) worked out at 27.3 µM in the experiment with RXF 393 renal and 88.2 µM with SF-295 CNS.
Turning to `O=C(Cc1ccccc1)Oc1ccc2c(-c3ccccc3)c(C(=O)Nc3ccc(Cl)cc3)c(=O)oc2c1`, the TGI in the experiment with A498 renal, in the experiment with HCC-2998 colon, with LOX IMVI melanoma, with MALME-3M melanoma, in the experiment on NCI-H23 lung and in the experiment with NCI-H460 lung was greater than 100 µM in each case. The TGI in the experiment on RXF 393 renal and in the experiment on SF-295 CNS was greater than 100 µM throughout.
`CC(NC(=O)c1ccccc1)C(=O)N(Cc1ccccc1)Cc1ccccc1` (stereo not given): the TGI was 89.9 µM in the experiment on A498 renal; greater than 100 µM in the experiment with HCC-2998 colon; 47.7 µM in the experiment with LOX IMVI melanoma; 53.7 µM in the experiment with MALME-3M melanoma; 60.4 µM in the experiment on NCI-H23 lung; 65.4 µM with NCI-H460 lung. Also, the total growth inhibition concentration (TGI) in the experiment with RXF 393 renal worked out at 98.4 µM; with SF-295 CNS, 75 µM.
In the case of `O=C1CCC2(c3ccc(F)cc3)Nc3ccccc3N12` (stereo not given), the total growth inhibition concentration (TGI) in the experiment on A498 renal, in the experiment with HCC-2998 colon, in the experiment on LOX IMVI melanoma, in the experiment on MALME-3M melanoma, in the experiment on NCI-H23 lung and in the experiment with NCI-H460 lung was greater than 100 µM each time. For the same compound, the TGI in the experiment on RXF 393 renal and in the experiment on SF-295 CNS was greater than 100 µM each time.
For `CC(=O)O[C@]1(C(C)=O)CC[C@H]2[C@@H]3C[C@H](C)C4=CC(=O)C=C[C@]4(C)[C@@]3(F)[C@@H](O)C[C@@]21C`, the concentration for total growth inhibition (TGI) with HCC-2998 colon, in the experiment with LOX IMVI melanoma, in the experiment on MALME-3M melanoma, with NCI-H23 lung, in the experiment with NCI-H460 lung and in the experiment on RXF 393 renal was greater than 100 µM each time. In the experiment on SF-295 CNS, the concentration for total growth inhibition (TGI) is greater than 100 µM.
With `[Cu+2].[Cu+2].[O-]c1ccccc1C=Nc1ccccc1[O-].[O-]c1ccccc1C=Nc1ccccc1[O-]`, the GI50 with A498 renal was 14.4 µM; in the experiment on HCC-2998 colon, 10.3 µM; with LOX IMVI melanoma, 4.12 µM; with MALME-3M melanoma, 13.7 µM; with NCI-H23 lung, 1.96 µM; with SF-295 CNS, 8.01 µM. Besides, the TGI with A498 renal stood at 28.1 µM; in the experiment on HCC-2998 colon, 22.4 µM; in the experiment on LOX IMVI melanoma, 17.5 µM; in the experiment with MALME-3M melanoma, 27.3 µM; in the experiment on NCI-H23 lung, 4.85 µM; with SF-295 CNS, 27.6 µM.
Regarding `Nc1nc2ncn(CCO)c2c(=O)[nH]1`, the TGI with HCC-2998 colon, with LOX IMVI melanoma, in the experiment with MALME-3M melanoma, in the experiment with NCI-H23 lung, in the experiment with NCI-H460 lung and in the experiment on RXF 393 renal was greater than 100 µM in each case. The same compound registered a concentration for total growth inhibition (TGI) with SF-295 CNS greater than 100 µM.
As to `CCCCN(CC)C(=O)C(=O)C1C(=O)Nc2ccccc2S1=O` (stereo not given), the TGI in the experiment on A498 renal, with HCC-2998 colon, with LOX IMVI melanoma, in the experiment on MALME-3M melanoma, in the experiment with NCI-H23 lung and in the experiment on NCI-H460 lung was greater than 100 µM throughout. The TGI in the experiment with RXF 393 renal is greater than 100 µM.
`C=C1C(=O)O[C@@H]2C[C@]3(C)[C@@H](C[C@H]12)[C@](C)(O)CC[C@@H]3O`: the TGI is greater than 100 µM with HCC-2998 colon; greater than 100 µM in the experiment on LOX IMVI melanoma; greater than 100 µM with MALME-3M melanoma; greater than 100 µM in the experiment on NCI-H23 lung; 68.9 µM in the experiment with NCI-H460 lung; greater than 100 µM in the experiment with SF-295 CNS.
Take `CN(C)CCC1(C2=CCCC2)CC/C(=C\c2ccc3c(c2)OCO3)C1=O` (stereo not given): the concentration for total growth inhibition (TGI) with A498 renal stood at 24.7 µM; in the experiment on HCC-2998 colon, 29.6 µM; in the experiment on MALME-3M melanoma it was 30.1 µM; in the experiment with NCI-H23 lung it was 33 µM; in the experiment on NCI-H460 lung it was 36.2 µM; with RXF 393 renal it was 21.3 µM. In the experiment on SF-295 CNS, this compound came in with a TGI of 29.5 µM.
